For assay [1], the system named is Apis mellifera Carniolan foraging worker honeybees. The assay is described as follows: Proboscis extension response (PER) assay with bees conditioned to 2-heptanone. In kind it is in vivo. The conditions noted are these: 0.5% compound in Triton X-100/water on filter paper, 4 s exposure; only bees giving PER with 2-heptanone and not with water or 15% Triton X-100 controls counted. How it is done:
To determine whether a living honeybee can recognize a candidate compound, these compounds were tested using a proboscis extension response (PER) assay using classical conditioning approaches. Proboscis extension response conditioning is a case of appetitive learning, in which bees learn to associate odor stimuli with sucrose reward in the laboratory. In this case, bees were conditioned to produce a PER to 2-heptanone as the conditioned stimulus and a sugar reward as the unconditioned stimulus. These trained bees were then exposed to an odor pulse of a candidate compound to test whether a candidate compound would also produce a PER. If the candidate compound “mimics” 2-heptanone then the honeybee will extend its proboscis.
For conditioning procedures, Apis mellifera Carniolan foraging worker honeybees were obtained from a local apiary (typically 60 bees per shipment). The honeybees were held overnight in insect cages with food and water freely available, in an environmentally controlled room on a light cycle similar to the ambient cycle at the time of the assay.
For conditioning procedures, all tests were done in an odorant delivery apparatus set inside a fume hood. The apparatus comprised a set of open-ended, horizontal, 3 cm diameter by 10 cm long plastic tubes. Each tube was designed where a honeybee could be positioned at the distal end of a tube, with the opening at the other end of the tube located proximal to an inlet of the fume hood. To deliver an odorant, room air was pumped by a diaphragm pump through a particle filter via 0.25 inch plastic tubing at approximately 0.7 m/sec. The air flow passes into the headspace above an odorant (0.5% [v/v] 2-heptanone dissolved in odorless light paraffin oil) contained in a 100 mL bottle. The headspace air then passes through another plastic tube to a manifold of 4-way valves, each of which was attached near the proximal end of a plastic tube containing a bee. Each bee was exposed separately for a desired time period to the odorant by opening and closing the appropriate valve. When each valve was closed, the odor was flushed away immediately by the continuous fume hood air stream.
To train a honeybee to respond to a conditioned and unconditioned stimuli, bees were placed, without anesthesia, in individual 1.5 mL micro-centrifuge holding tubes and held overnight without access to food or water. The holding tubes containing the starved bees were placed in racks in groups of eight. One rack at a time was placed behind the odorant delivery apparatus so that each bee's head is centered at the distal end of a horizontal plastic tube. Each bee was exposed to the 2-heptanone odorant alone for four seconds, and then while being fed an 80% sucrose solution for and additional three seconds. The sucrose solution was delivered on a piece of saturated filter paper held in forceps. […] Positive and negative responses were recorded. A positive PER was scored when a bee extended its proboscis before the sucrose appeared. In a typical trial, 48 individual bees were subjected to conditioning.
After conditioning, honeybees were tested with the candidate compounds the same day or on the following day or, most commonly, both. When held overnight, bees were fed with sucrose and kept in their holding tubes. When tested the day after training, bees were given one or more rounds of conditioning with 2-heptatone to refresh their memories. Candidate compounds stocks were made at 5% (w/v) in polyoxyethylene octyl phenyl ether (TRITON® X-100), a non-ionic detergent/surfactant, and stored at 4° C. […] Test solutions were made fresh daily by mixing stock solutions with water for a final compound concentration of 0.5%. A solution of 0.5% 2-heptanone in paraffin oil was used as a positive control.

For assay [2], the system named is OBP2. The assay is described as follows: Fluorescent-quench ligand-protein-binding assay (OBP2 binding). The arrangement: species or system Apis mellifera. The source says:
To identify a honeybee repellent disclosed herein, candidate compounds were screened based upon the fact that 2-heptanone is an established repellent of bees. 2-heptanone is thought to mediate its behavioral response through binding to a specific odorant-binding protein called OBP2. […] Such assays are generally known in the art. See, e.g., Briand, et al., Ligand-Binding Properties and Structural Characterization of a Novel Rat Odorant-Binding Protein Variant, Eur. J. Biochem. 267(10): 3079-3089 (2000); Briand, et al., Ligand Binding and Physico-Chemical Properties of ASP2, A Recombinant Odorant-Binding Protein From Honeybee (Apis mellifera L.), Eur. J. Biochem. 268(3): 752-760 (2001); Briand, et al., Characterization of a Chemosensory Protein (ASP3c) from Honeybee (Apis mellifera L.) as a Brood Pheromone Carrier, Eur. J. Biochem. 269(18): 4586-4596 (2002), each of which is hereby incorporated by reference in its entirety.

`CCOC(=O)CSc1nc2c(c(=O)n1-c1ccccc1)C1(CCCC1)Cc1ccccc1-2` [compound 71]: the “2-heptanone positive bees testing positive to compound” value in assay [1] worked out at 19.1%. Also, the “OBP2 binding characteristic of compound” value in assay [2] is recorded as “Moderate (Moderate, indicates that 50% or less of the compound bound to OBP2.)”. On to `O=C1CSC(=O)N1CC(O)Cn1c2ccc(Cl)cc2c2cc(Cl)ccc21` (stereo not drawn) [compound 72], for which the “2-heptanone positive bees testing positive to compound” value in assay [1] came out at 2.3%. In assay [2], the “OBP2 binding characteristic of compound” value is “Moderate (Moderate, indicates that 50% or less of the compound bound to OBP2.)”. With `O=C(c1ccccc1)N1N=C(C(F)(F)F)CC1(O)c1ccccc1O` (stereo not drawn) [compound 73], the “2-heptanone positive bees testing positive to compound” value in assay [1] was found to be 8.3%. Besides, the “OBP2 binding characteristic of compound” value in assay [2] is recorded as “Moderate (Moderate, indicates that 50% or less of the compound bound to OBP2.)”.

As to `c1ccn(-c2ncnc3sc4c(c23)CCCC4)c1` [compound 77], the “2-heptanone positive bees testing positive to compound” value in assay [1] came to 14.3%. Besides, in assay [2], the “OBP2 binding characteristic of compound” value is reported as “Moderate (Moderate, indicates that 50% or less of the compound bound to OBP2.)”. As for `CCOC(=O)c1c(-c2ccccc2)csc1NC(=S)NC(C)=O` [compound 78], the “2-heptanone positive bees testing positive to compound” value in assay [1] was determined as 7.7%. Also, the “OBP2 binding characteristic of compound” value in assay [2] is on record as “Moderate (Moderate, indicates that 50% or less of the compound bound to OBP2.)”. In the case of `Cc1cc(C)c(O)c(N=Cc2cc(I)cc(I)c2O)c1` [compound 82], the “2-heptanone positive bees testing positive to compound” value in assay [1] came out at 6.4%. Further, the “OBP2 binding characteristic of compound” value in assay [2] is given as “Moderate (Moderate, indicates that 50% or less of the compound bound to OBP2.)”.

As for `COc1ccc2ccccc2c1C=Nc1cc(C)ccc1C` [compound 84], the “2-heptanone positive bees testing positive to compound” value in assay [1] was 27.9%. Besides, in assay [2], the “OBP2 binding characteristic of compound” value is recorded as “Moderate (Moderate, indicates that 50% or less of the compound bound to OBP2.)”.

As for `O=C1NC(=S)SC1=Cc1ccc(N2CCOCC2)c([N+](=O)[O-])c1` [compound 85], the “2-heptanone positive bees testing positive to compound” value in assay [1] is recorded as 18.0%. In assay [2], the “OBP2 binding characteristic of compound” value is “Moderate (Moderate, indicates that 50% or less of the compound bound to OBP2.)”. Consider `Oc1ccc(Br)cc1C=Nc1ccc(NCc2ccccc2)cc1` [compound 87], for which, in assay [1], the “2-heptanone positive bees testing positive to compound” value was determined as 9.5%. In assay [2], the “OBP2 binding characteristic of compound” value is recorded as “Moderate (Moderate, indicates that 50% or less of the compound bound to OBP2.)”. On to `O=C1c2ccccc2C(=O)c2c1ccc1c(=O)n(C3CCCCC3)[nH]c21` [compound 88], for which the “2-heptanone positive bees testing positive to compound” value in assay [1] is 14.3%. Besides, the “OBP2 binding characteristic of compound” value in assay [2] is “Moderate (Moderate, indicates that 50% or less of the compound bound to OBP2.)”. With `Cc1cc(C)c2ccc(C=Cc3ccccc3N)nc2c1O` [compound 90], the “2-heptanone positive bees testing positive to compound” value in assay [1] is on record as 17.0%. Moreover, the “OBP2 binding characteristic of compound” value in assay [2] was “Moderate (Moderate, indicates that 50% or less of the compound bound to OBP2.)”.

For the molecule `C=CCN1C(=O)C(=Cc2cccc([N+](=O)[O-])c2O)SC1=S` [compound 91], the “2-heptanone positive bees testing positive to compound” value in assay [1] was 17.3%. The “OBP2 binding characteristic of compound” value in assay [2] is given as “Moderate (Moderate, indicates that 50% or less of the compound bound to OBP2.)”. Take `C(=NN(c1ccccc1)c1ccccc1)c1ccncc1` [compound 92]: the “2-heptanone positive bees testing positive to compound” value in assay [1] was 7.0%. Further, in assay [2], the “OBP2 binding characteristic of compound” value is “Moderate (Moderate, indicates that 50% or less of the compound bound to OBP2.)”. Take `O=C1CCC(=O)N1CC(O)Cn1c2ccc(Br)cc2c2cc(Br)ccc21` (stereo not drawn) [compound 93]: in assay [1], the “2-heptanone positive bees testing positive to compound” value worked out at 14.0%. In addition, the “OBP2 binding characteristic of compound” value in assay [2] is “Moderate (Moderate, indicates that 50% or less of the compound bound to OBP2.)”.

In the case of `NC(=O)c1ccccc1NC(=O)c1sc2ccccc2c1Cl` [compound 94], the “2-heptanone positive bees testing positive to compound” value in assay [1] came to 16.7%. In assay [2], the “OBP2 binding characteristic of compound” value is listed as “Moderate (Moderate, indicates that 50% or less of the compound bound to OBP2.)”. For the molecule `CC(C)CCn1c(=O)c(C(=O)NCc2ccco2)c(O)c2ccccc21` [compound 95], the “2-heptanone positive bees testing positive to compound” value in assay [1] is given as 7.3%. In assay [2], the “OBP2 binding characteristic of compound” value is listed as “Moderate (Moderate, indicates that 50% or less of the compound bound to OBP2.)”. With `Oc1c(I)cc2oc3c(c2c1C=Nc1nc[nH]n1)CCCC3` [compound 96], the “2-heptanone positive bees testing positive to compound” value in assay [1] was determined as 28.6%. Also, in assay [2], the “OBP2 binding characteristic of compound” value is listed as “Moderate (Moderate, indicates that 50% or less of the compound bound to OBP2.)”.

Turning to `CCN(CC)C(=O)c1c(NC(=O)c2ccco2)sc2c1CCCCC2` [compound 97], the “2-heptanone positive bees testing positive to compound” value in assay [1] came out at 21.1%. Moreover, the “OBP2 binding characteristic of compound” value in assay [2] is given as “Moderate (Moderate, indicates that 50% or less of the compound bound to OBP2.)”. For `Cc1ccc(NC(=O)c2c(NC(=O)c3ccco3)sc3c2CCCCC3)cc1` [compound 98], the “2-heptanone positive bees testing positive to compound” value in assay [1] worked out at 21.6%. In assay [2], the “OBP2 binding characteristic of compound” value is on record as “Moderate (Moderate, indicates that 50% or less of the compound bound to OBP2.)”. Regarding `O=C(Nc1sc2c(c1C(=O)N1CCCCC1)CCCCC2)c1ccccc1` [compound 99], in assay [1], the “2-heptanone positive bees testing positive to compound” value stood at 29.0%. Moreover, in assay [2], the “OBP2 binding characteristic of compound” value is “Moderate (Moderate, indicates that 50% or less of the compound bound to OBP2.)”. For the molecule `CCOC(=O)c1ccc(N2NC(=O)C(=Cc3ccc(N4CCOCC4)cc3)C2=O)cc1` [compound 101], the “2-heptanone positive bees testing positive to compound” value in assay [1] turned out to be 20.9%. Also, the “OBP2 binding characteristic of compound” value in assay [2] is “Moderate (Moderate, indicates that 50% or less of the compound bound to OBP2.)”.

As to `Cc1[nH]c2ccccc2c1C=NNC(=O)c1cccc(I)c1` [compound 103], the “2-heptanone positive bees testing positive to compound” value in assay [1] was found to be 32.4%. Further, the “OBP2 binding characteristic of compound” value in assay [2] was “Moderate (Moderate, indicates that 50% or less of the compound bound to OBP2.)”.

Regarding `O=C1C=Cc2ccccc2C1=NNc1ccc2c(c1)OCCO2` [compound 105], in assay [1], the “2-heptanone positive bees testing positive to compound” value was determined as 24.3%. The “OBP2 binding characteristic of compound” value in assay [2] is given as “Moderate (Moderate, indicates that 50% or less of the compound bound to OBP2.)”.

`Clc1ccccc1-c1nnc(SCc2ccccc2)o1` [compound 106]: the “2-heptanone positive bees testing positive to compound” value in assay [1] was 7.3%. Also, in assay [2], the “OBP2 binding characteristic of compound” value was “Moderate (Moderate, indicates that 50% or less of the compound bound to OBP2.)”.

With `COc1ccccc1NC(=S)NC(=O)c1ccc(F)cc1` [compound 107], in assay [1], the “2-heptanone positive bees testing positive to compound” value is on record as 5.1%. Besides, the “OBP2 binding characteristic of compound” value in assay [2] is on record as “Moderate (Moderate, indicates that 50% or less of the compound bound to OBP2.)”. As to `O=c1nc(C(F)(F)F)cc(C=Cc2ccc(-c3cccc(Cl)c3)o2)[nH]1` [compound 108], the “2-heptanone positive bees testing positive to compound” value in assay [1] is listed as 16.2%. In assay [2], the “OBP2 binding characteristic of compound” value is on record as “Moderate (Moderate, indicates that 50% or less of the compound bound to OBP2.)”.

Regarding `O=C(NC(=S)Nc1cccc2cccnc12)c1cccs1` [compound 117], the “OBP2 binding characteristic of compound” value in assay [2] was “Moderate (Moderate, indicates that 50% or less of the compound bound to OBP2.)”.

Take `COc1cccc(C=C2SC(=N)NC2=O)c1OCc1ccc(Cl)cc1Cl` [compound 118]: the “OBP2 binding characteristic of compound” value in assay [2] is “Moderate (Moderate, indicates that 50% or less of the compound bound to OBP2.)”.

These data come from US9796676B2, “Honeybee repellents and uses thereof” (Inscent, Inc., priority 2013, dated 2017).
